CCOC(=O)C1=C(C)NC(C)=C(C(=O)OCC)C1
Conditions | solubility (mole fraction)
in 2-butanone, 272.15 K | 0.00182
in 2-butanone, 278.15 K | 0.00274
in 2-butanone, 283.15 K | 0.00382
in 2-butanone, 288.15 K | 0.00525
in 2-butanone, 293.15 K | 0.00717
in 2-butanone, 298.15 K | 0.00965
in 2-butanone, 303.35 K | 0.013
in 2-butanone, 308.25 K | 0.0171
in 2-butanone, 313.15 K | 0.0222
in 2-butanone, 318.15 K | 0.0288
in 2-butanone, 323.65 K | 0.038
in 2-pentanone, 272.15 K | 0.00169
in 2-pentanone, 278.15 K | 0.00255
in 2-pentanone, 283.15 K | 0.00353
in 2-pentanone, 288.15 K | 0.00485
in 2-pentanone, 293.15 K | 0.00657
in 2-pentanone, 298.15 K | 0.00881
in 2-pentanone, 303.35 K | 0.0119
in 2-pentanone, 308.25 K | 0.0155
in 2-pentanone, 313.15 K | 0.0202
in 2-pentanone, 318.15 K | 0.026
in 2-pentanone, 323.65 K | 0.0345
in acetone, 272.15 K | 0.00112
in acetone, 278.15 K | 0.00165
in acetone, 283.15 K | 0.00225
in acetone, 288.15 K | 0.00304
in acetone, 293.15 K | 0.00407
in acetone, 298.15 K | 0.0054
in acetone, 303.35 K | 0.00718
in acetone, 308.25 K | 0.00926
in acetone, 313.15 K | 0.0119
in acetone, 318.15 K | 0.0152
in acetone, 323.65 K | 0.02
in acetonitrile, 272.15 K | 0.000235
in acetonitrile, 278.15 K | 0.000356
in acetonitrile, 283.15 K | 0.000495
in acetonitrile, 288.15 K | 0.000687
in acetonitrile, 293.15 K | 0.000931
in acetonitrile, 298.15 K | 0.00126
in acetonitrile, 303.35 K | 0.0017
in acetonitrile, 308.25 K | 0.00224
in acetonitrile, 313.15 K | 0.00291
in acetonitrile, 318.15 K | 0.0038
in acetonitrile, 323.65 K | 0.00503
in ethanol, 272.15 K | 0.000414
in ethanol, 277.95 K | 0.000587
in ethanol, 283.15 K | 0.000795
in ethanol, 288.15 K | 0.00105
in ethanol, 293.05 K | 0.00137
in ethanol, 298.15 K | 0.00179
in ethanol, 303.15 K | 0.00232
in ethanol, 308.05 K | 0.00294
in ethanol, 312.35 K | 0.00362
in ethanol, 318.15 K | 0.00472
in ethanol, 323.15 K | 0.0059
in ethyl acetate, 272.15 K | 0.00135
in ethyl acetate, 278.15 K | 0.00195
in ethyl acetate, 283.15 K | 0.00261
in ethyl acetate, 288.15 K | 0.00345
in ethyl acetate, 293.15 K | 0.00453
in ethyl acetate, 298.15 K | 0.00588
in ethyl acetate, 303.35 K | 0.00767
in ethyl acetate, 308.25 K | 0.00977
in ethyl acetate, 313.15 K | 0.0123
in ethyl acetate, 318.15 K | 0.0155
in ethyl acetate, 323.65 K | 0.0198
in ethyl formate, 272.15 K | 0.00082
in ethyl formate, 278.15 K | 0.00117
in ethyl formate, 283.15 K | 0.00155
in ethyl formate, 288.15 K | 0.00204
in ethyl formate, 293.15 K | 0.00266
in ethyl formate, 298.15 K | 0.00343
in ethyl formate, 303.35 K | 0.00444
in ethyl formate, 308.25 K | 0.00562
in ethyl formate, 313.15 K | 0.00703
in ethyl formate, 318.15 K | 0.00881
in ethyl formate, 323.65 K | 0.0112
in isobutanol, 272.15 K | 0.000707
in isobutanol, 277.95 K | 0.00106
in isobutanol, 283.15 K | 0.00151
in isobutanol, 288.15 K | 0.00209
in isobutanol, 293.05 K | 0.00283
in isobutanol, 298.15 K | 0.00386
in isobutanol, 303.15 K | 0.00517
in isobutanol, 308.05 K | 0.00684
in isobutanol, 312.35 K | 0.00863
in isobutanol, 318.15 K | 0.0117
in isobutanol, 323.15 K | 0.0152
in isopentanol, 272.15 K | 0.000677
in isopentanol, 277.95 K | 0.000996
in isopentanol, 283.15 K | 0.00139
in isopentanol, 288.15 K | 0.00189
in isopentanol, 293.05 K | 0.00254
in isopentanol, 298.15 K | 0.00341
in isopentanol, 303.15 K | 0.0045
in isopentanol, 308.05 K | 0.00587
in isopentanol, 312.35 K | 0.00738
in isopentanol, 318.15 K | 0.00989
in isopentanol, 323.15 K | 0.0126
in isopropanol, 272.15 K | 0.000462
in isopropanol, 277.95 K | 0.00066
in isopropanol, 283.15 K | 0.000904
in isopropanol, 288.15 K | 0.0012
in isopropanol, 293.05 K | 0.00158
in isopropanol, 298.15 K | 0.00208
in isopropanol, 303.15 K | 0.00269
in isopropanol, 308.05 K | 0.00344
in isopropanol, 312.35 K | 0.00424
in isopropanol, 318.15 K | 0.00557
in isopropanol, 323.15 K | 0.00702
in methanol, 272.15 K | 0.000246
in methanol, 277.95 K | 0.000355
in methanol, 283.15 K | 0.000486
in methanol, 288.15 K | 0.000655
in methanol, 293.05 K | 0.000865
in methanol, 298.15 K | 0.00114
in methanol, 303.15 K | 0.0015
in methanol, 308.05 K | 0.00192
in methanol, 312.35 K | 0.00238
in methanol, 318.15 K | 0.00315
in methanol, 323.15 K | 0.004
in methyl acetate, 272.15 K | 0.00103
in methyl acetate, 278.15 K | 0.00146
in methyl acetate, 283.15 K | 0.00192
in methyl acetate, 288.15 K | 0.00251
in methyl acetate, 293.15 K | 0.00326
in methyl acetate, 298.15 K | 0.0042
in methyl acetate, 303.35 K | 0.00541
in methyl acetate, 308.25 K | 0.00679
in methyl acetate, 313.15 K | 0.00848
in methyl acetate, 318.15 K | 0.0106
in methyl acetate, 323.65 K | 0.0134
in n-butanol, 272.15 K | 0.000605
in n-butanol, 277.95 K | 0.000859
in n-butanol, 283.15 K | 0.00116
in n-butanol, 288.15 K | 0.00154
in n-butanol, 293.05 K | 0.00201
in n-butanol, 298.15 K | 0.00262
in n-butanol, 303.15 K | 0.00338
in n-butanol, 308.05 K | 0.0043
in n-butanol, 312.35 K | 0.00528
in n-butanol, 318.15 K | 0.00691
in n-butanol, 323.15 K | 0.00862
in n-pentanol, 272.15 K | 0.000647
in n-pentanol, 277.95 K | 0.000925
in n-pentanol, 283.15 K | 0.00126
in n-pentanol, 288.15 K | 0.00169
in n-pentanol, 293.05 K | 0.00221
in n-pentanol, 298.15 K | 0.00292
in n-pentanol, 303.15 K | 0.00378
in n-pentanol, 308.05 K | 0.00483
in n-pentanol, 312.35 K | 0.00597
in n-pentanol, 318.15 K | 0.00787
in n-pentanol, 323.15 K | 0.00988
in n-propanol, 272.15 K | 0.000513
in n-propanol, 277.95 K | 0.000735
in n-propanol, 283.15 K | 0.000998
in n-propanol, 288.15 K | 0.00133
in n-propanol, 293.05 K | 0.00174
in n-propanol, 298.15 K | 0.00229
in n-propanol, 303.15 K | 0.00296
in n-propanol, 308.05 K | 0.0038
in n-propanol, 312.35 K | 0.00468
in n-propanol, 318.15 K | 0.00613
in n-propanol, 323.15 K | 0.00773
in toluene, 272.15 K | 0.00015
in toluene, 278.15 K | 0.00023
in toluene, 283.15 K | 0.000323
in toluene, 288.15 K | 0.000449
in toluene, 293.15 K | 0.000618
in toluene, 298.15 K | 0.000839
in toluene, 303.35 K | 0.00114
in toluene, 308.25 K | 0.00151
in toluene, 313.15 K | 0.00198
in toluene, 318.15 K | 0.0026
in toluene, 323.65 K | 0.00346
